Data from PubChem BioAssay (NCI).
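All cell lines were grown in 96-well plates and treated with compound for 48 hours. Here, GI50 denotes the concentration required for 50% inhibition of growth. At the TGI there is no net growth.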

Columns and labels:
Assay in all cases: growth of human tumour cells (NCI), 48 h
A549 NSCLC = test system: A549 NSCLC
UACC-257 melanoma = test system: UACC-257 melanoma
SN12C renal = test system: SN12C renal
TK-10 renal = test system: TK-10 renal
MOLT-4 leukemia = test system: MOLT-4 leukemia
PC-3 prostate = test system: PC-3 prostate
EKVX NSCLC = test system: EKVX NSCLC
CAKI-1 renal = test system: CAKI-1 renal
ACHN renal = test system: ACHN renal
SF-268 CNS = test system: SF-268 CNS
MDA-MB-231 breast = test system: MDA-MB-231 breast
HCC-2998 colon = test system: HCC-2998 colon
MDA-MB-435 = test system: MDA-MB-435
HL-60(TB) leukemia = test system: HL-60(TB) leukemia
SK-MEL-2 melanoma = test system: SK-MEL-2 melanoma
OVCAR-8 ovarian = test system: OVCAR-8 ovarian
HOP-92 NSCLC = test system: HOP-92 NSCLC
HT29 colon = test system: HT29 colon
NCI/ADR-RES ovarian = test system: NCI/ADR-RES ovarian
U251 CNS = test system: U251 CNS
K-562 leukemia = test system: K-562 leukemia
SNB-19 CNS = test system: SNB-19 CNS
SR leukemia = test system: SR leukemia
HS 578T breast = test system: HS 578T breast
M14 melanoma = test system: M14 melanoma
SF-295 CNS = test system: SF-295 CNS
SW-620 colon = test system: SW-620 colon
SK-MEL-5 melanoma = test system: SK-MEL-5 melanoma
OVCAR-5 ovarian = test system: OVCAR-5 ovarian
SK-MEL-28 melanoma = test system: SK-MEL-28 melanoma
786-0 renal = test system: 786-0 renal
MCF7 breast = test system: MCF7 breast
OVCAR-3 ovarian = test system: OVCAR-3 ovarian
HCT-15 colon = test system: HCT-15 colon
BT-549 breast = test system: BT-549 breast
NCI-H522 lung = test system: NCI-H522 lung
CCRF-CEM leukemia = test system: CCRF-CEM leukemia
OVCAR-4 ovarian = test system: OVCAR-4 ovarian
LOX IMVI melanoma = test system: LOX IMVI melanoma
SNB-75 CNS = test system: SNB-75 CNS
A498 renal = test system: A498 renal
NCI-H460 lung = test system: NCI-H460 lung
RPMI-8226 leukemia = test system: RPMI-8226 leukemia
MALME-3M melanoma = test system: MALME-3M melanoma
KM12 colon = test system: KM12 colon
UACC-62 melanoma = test system: UACC-62 melanoma
SK-OV-3 ovarian = test system: SK-OV-3 ovarian
HCT-116 colon = test system: HCT-116 colon
COLO 205 colon = test system: COLO 205 colon
UO-31 renal = test system: UO-31 renal
NCI-H23 lung = test system: NCI-H23 lung
T-47D breast = test system: T-47D breast
HOP-62 NSCLC = test system: HOP-62 NSCLC
DU-145 prostate = test system: DU-145 prostate
IGROV1 ovarian = test system: IGROV1 ovarian
NCI-H226 lung = test system: NCI-H226 lung
SF-539 CNS = test system: SF-539 CNS
RXF 393 renal = test system: RXF 393 renal

## O=C(C[C@@]1(O)C(=O)Nc2c(Cl)ccc(Cl)c21)c1ccc(C2CC2)cc1
A549 NSCLC
  GI50: 729 nM
  TGI: 24000 nM
UACC-257 melanoma
  GI50: 12400 nM
  TGI: 41100 nM
SN12C renal
  GI50: 880 nM
  TGI: 17700 nM
TK-10 renal
  GI50: 15100 nM
  TGI: 46600 nM
MOLT-4 leukemia
  GI50: 505 nM
  TGI: 14600 nM
PC-3 prostate
  GI50: 434 nM
  TGI: 20000 nM
EKVX NSCLC
  GI50: 631 nM
  TGI: 30700 nM
CAKI-1 renal
  GI50: 214 nM
  TGI: 17200 nM
ACHN renal
  GI50: 726 nM
  TGI: 31300 nM
SF-268 CNS
  GI50: 1300 nM
  TGI: 18500 nM
MDA-MB-231 breast
  GI50: 798 nM
  TGI: 15200 nM
HCC-2998 colon
  GI50: 888 nM
  TGI: 14800 nM
MDA-MB-435
  GI50: 33 nM
  TGI: 232 nM
HL-60(TB) leukemia
  GI50: 263 nM
  TGI: 1070 nM
SK-MEL-2 melanoma
  GI50: 515 nM
  TGI: 18000 nM
OVCAR-8 ovarian
  GI50: 577 nM
  TGI: 19300 nM
HOP-92 NSCLC
  GI50: 1460 nM
  TGI: 19700 nM
HT29 colon
  GI50: 222 nM
  TGI: 13700 nM
NCI/ADR-RES ovarian
  GI50: 212 nM
  TGI: 13900 nM
U251 CNS
  GI50: 436 nM
  TGI: 16200 nM
K-562 leukemia
  GI50: 50 nM
  TGI: > 51700 nM
SNB-19 CNS
  GI50: 690 nM
  TGI: 18100 nM
SR leukemia
  GI50: 52.7 nM
  TGI: 15400 nM
HS 578T breast
  GI50: 305 nM
  TGI: 10000 nM
M14 melanoma
  GI50: 184 nM
  TGI: 13800 nM
SF-295 CNS
  GI50: 344 nM
  TGI: 13300 nM
SW-620 colon
  GI50: 190 nM
  TGI: 16500 nM
SK-MEL-5 melanoma
  GI50: 355 nM
  TGI: 11600 nM
OVCAR-5 ovarian
  GI50: 1170 nM
  TGI: 17500 nM
SK-MEL-28 melanoma
  GI50: 3500 nM
  TGI: 23500 nM
786-0 renal
  GI50: 1390 nM
  TGI: 20000 nM
MCF7 breast
  GI50: 171 nM
  TGI: 18200 nM
OVCAR-3 ovarian
  GI50: 264 nM
  TGI: 3710 nM
HCT-15 colon
  GI50: 102 nM
  TGI: 13600 nM
BT-549 breast
  GI50: 445 nM
  TGI: 11700 nM
NCI-H522 lung
  GI50: 68.2 nM
  TGI: 14100 nM
CCRF-CEM leukemia
  GI50: 341 nM
  TGI: > 100000 nM
OVCAR-4 ovarian
  GI50: 6010 nM
  TGI: 39800 nM
LOX IMVI melanoma
  GI50: 541 nM
  TGI: 13900 nM
SNB-75 CNS
  GI50: 143 nM
  TGI: 588 nM
A498 renal
  GI50: 213 nM
  TGI: 750 nM
NCI-H460 lung
  GI50: 359 nM
  TGI: 11400 nM
RPMI-8226 leukemia
  GI50: 433 nM
  TGI: 21400 nM
MALME-3M melanoma
  GI50: 542 nM
  TGI: 23900 nM
KM12 colon
  GI50: 318 nM
  TGI: 14200 nM
UACC-62 melanoma
  GI50: 378 nM
  TGI: 15600 nM
SK-OV-3 ovarian
  GI50: 613 nM
  TGI: 39100 nM
HCT-116 colon
  GI50: 437 nM
  TGI: 11900 nM
COLO 205 colon
  GI50: 298 nM
  TGI: 2130 nM
UO-31 renal
  GI50: 585 nM
  TGI: 18500 nM
NCI-H23 lung
  GI50: 634 nM
  TGI: 19300 nM
T-47D breast
  GI50: 454 nM
  TGI: 32500 nM
HOP-62 NSCLC
  GI50: 516 nM
  TGI: 19200 nM
DU-145 prostate
  GI50: 492 nM
  TGI: 17100 nM
IGROV1 ovarian
  GI50: 446 nM
  TGI: 13600 nM
NCI-H226 lung
  GI50: 1540 nM
  TGI: 19700 nM
SF-539 CNS
  GI50: 286 nM
  TGI: 3640 nM
RXF 393 renal
  GI50: 257 nM
  TGI: 4030 nM
